Read-outs that look alike come from different tables or passages of the source. Where a SMILES comes first, the peptide text is derived from it. [ ]: non-standard residue; d: D form. Phe(4-CF3) = N[C@@H](Cc1ccc(C(F)(F)F)cc1)C(=O)O; Phe(4-Cl) = N[C@@H](Cc1ccc(Cl)cc1)C(=O)O; 1Nal = N[C@@H](Cc1cccc2ccccc12)C(=O)O; hPhe = N[C@@H](CCc1ccccc1)C(=O)O; hLeu = CC(C)CC[C@H](N)C(=O)O; hCys = N[C@@H](CCS)C(=O)O; Nle = CCCC[C@H](N)C(=O)O; Abu = CC[C@H](N)C(=O)O
Tests used:
HIF-1α PAS-B domain = biological target: T1, HIF-1α PAS-B domain (Homo sapiens, UniProt Q16665); experiment: MST binding to the PAS-B domain of HIF-1α; settings: for Kd: mean ± SEM, n = 2 (n = 1 for most C1 analogues, n = 3 in Figure S2)
T1 construct: made in house
T1 sequence (Q16665 238-349 limits assumed): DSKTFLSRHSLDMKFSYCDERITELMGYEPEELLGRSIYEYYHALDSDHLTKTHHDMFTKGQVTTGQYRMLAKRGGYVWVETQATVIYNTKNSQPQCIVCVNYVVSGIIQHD
Description: (§1) All reagents were purchased from Fisher Scientific or Sigma Aldrich UK unless specified otherwise.
(§2) Restriction enzymes and microbiology reagents were purchased from New England Biolabs Inc., Fisher Scientific (UK) or Promega (UK) and were used as directed by the manufacturer. Primers and oligonucleotides were synthesised by Integrated DNA Technologies (UK). DNA sequencing was carried out by Eurofins MWG Operon (Germany).
(§3) Construction of the RTHS and SICLOPPS library, screening, purification of recombinant HIF proteins, and the PLA was conducted as previously described in Miranda et al., J. Am. Chem. Soc., 2013, 135(28); […]
(§4) Protein labelling with MST dye
(§5) Protein was buffer exchanged from storage buffer into labelling buffer (0.1 M NaHCO3, pH 8.5) using a PD spintrap G-25 column (GE healthcare). The protein concentration was then adjusted to 20 µM.
(§6) The commercially sourced MST dye (NanoTemper) was prepared as a 470 µM solution in DMSO, which was then further diluted to 60 µM using labelling buffer. To the protein solution was added an equal volume of dye solution, and the labelling reaction was left for 1 hour in the dark at room temperature.
(§7) The labelled protein was separated from unreacted dye by elution through a PD minitrap G-25 column (GE healthcare). Labelled protein was then aliquoted and stored at -80 °C. Extent of labelling was measured by the absorbance obtained using the UV-vis mode on a NanoDrop ND-1000 Spectrophotometer (NanoDrop Technologies, USA).
(§8) Labelled protein was thawed on ice and diluted to 50 nM in assay buffer containing 50 mM Tris pH 8.0, 150 mM NaCl, 5% (v/v) glycerol, 1 mM TCEP and 0.05% TWEEN-20. The protein solution was then centrifuged at 12000 rpm for 15 minutes at 4 °C and left on ice. Compounds were prepared and serially diluted in DMSO at 10x assay concentration, before diluting to 2x assay concentration in assay buffer.
(§9) The 2x compound solutions were then mixed 1:1 (v/v) with 50 nM labelled protein solution and left to incubate for 1 hour at room temperature. Solutions were then loaded into Monolith NT.115 Premium Capillaries (NanoTemper) and placed in the sample tray. MST experiments were carried out

HIF-2α PAS-B domain = biological target: T2, HIF-2α PAS-B domain (Homo sapiens, UniProt Q99814); experiment: MST binding to the PAS-B domain of HIF-2α; settings: MST
T2 construct: made in house
T2 sequence (Q99814 240-350 limits assumed): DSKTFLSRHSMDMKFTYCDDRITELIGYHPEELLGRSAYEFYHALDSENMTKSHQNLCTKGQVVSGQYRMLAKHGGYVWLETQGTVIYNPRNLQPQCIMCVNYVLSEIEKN
Description: as §1, §2, §3, §4, §5, §6, §7, §8, §9

[1] = MST, read-out: KD for HIF-1α PAS-B

Row | SMILES | Kd (HIF-1α PAS-B domain; [1]) | other results
1 | CC[C@H](C)[C@@H]1NC(=O)[C@H](CC(C)C)NC(=O)[C@H](CCCNC(=N)N)NC(=O)[C@H](CS)NC(=O)[C@H](Cc2ccccc2)NC(=O)[C@H](C)NC1=O [cyclo-CRLIAF] | > 100 µM | Kd (HIF-2α PAS-B domain; mean (n = 2) ± SEM): > 100 µM
2 | CC[C@H](C)[C@@H]1NC(=O)[C@H](CC(C)C)NC(=O)[C@H](CCCNC(=N)N)NC(=O)[C@H](CS)NC(=O)[C@H](Cc2ccc(Cl)cc2)NC(=O)[C@H]([C@@H](C)CC)NC1=O [Cl, cyclo-CRLII(4-Cl)F] (cyclo(CRLII[Phe(4-Cl)])) | 1.2 ± 0.3 µM | –
3 | CC[C@H](C)[C@@H]1NC(=O)[C@H](CC(C)C)NC(=O)[C@H](CCCNC(=N)N)NC(=O)[C@H]([C@@H](C)O)NC(=O)[C@H](Cc2ccccc2)NC(=O)[C@H]([C@@H](C)CC)NC1=O [T, cyclo-TRLIIF] (cyclo(FTRLII)) | > 100 µM | –
4 | CC[C@H](C)[C@@H]1NC(=O)[C@H](CC(C)C)NC(=O)[C@H](CCCNC(=N)N)NC(=O)[C@H](CS)NC(=O)[C@H](Cc2ccccc2)NC(=O)[C@H](CCC(C)C)NC1=O [hL, cyclo-CRLIhLF] (cyclo(CRLI[hLeu]F)) | 4.4 ± 1.3 µM | –
5 | CC[C@H](C)[C@@H]1NC(=O)[C@H](CC(C)C)NC(=O)[C@H](CCCNC(=N)N)NC(=O)[C@H](CS)NC(=O)[C@H](CCc2ccccc2)NC(=O)[C@H]([C@@H](C)CC)NC1=O [hF, cyclo-CRLIIhF] (cyclo(CRLII[hPhe])) | 1.2 ± 0.7 µM | improvement in HIF-1α binding affinity compared to the parent cyclic peptide cyclo-CRLIIF (HIF-1α PAS-B domain; MST KD ratio): 3 fold
6 | CCCC[C@@H]1NC(=O)[C@H]([C@@H](C)CC)NC(=O)[C@H](CC(C)C)NC(=O)[C@H](CCCNC(=N)N)NC(=O)[C@H](CS)NC(=O)[C@H](Cc2ccccc2)NC1=O [Nle, cyclo-CRLINleF] (cyclo(CRLI[Nle]F)) | 7.5 ± 0.9 µM | –
7 | CC[C@H](C)[C@@H]1NC(=O)[C@H](CC(C)C)NC(=O)[C@H](CCCNC(=N)N)NC(=O)[C@H](CS)NC(=O)[C@H](Cc2ccc(C(F)(F)F)cc2)NC(=O)[C@H]([C@@H](C)CC)NC1=O [CF3, cyclo-CRLII(4-CF3)F] (cyclo(CRLII[Phe(4-CF3)])) | 1.1 ± 0.5 µM | –
8 | CC[C@H](C)[C@@H]1NC(=O)[C@H](CC(C)C)NC(=O)[C@H](CCCNC(=N)N)NC(=O)[C@H](CCS)NC(=O)[C@H](Cc2ccccc2)NC(=O)[C@H]([C@@H](C)CC)NC1=O [hC, cyclo-hCRLIIF] (cyclo(F[hCys]RLII)) | > 50 µM | –
9 | CC[C@H](C)[C@@H]1NC(=O)[C@H](CC(C)C)NC(=O)[C@H](CCCNC(=N)N)NC(=O)[C@H](CS)NC(=O)[C@H](Cc2ccccc2)NC(=O)[C@H](CC(C)C)NC1=O [L, cyclo-CRLILF] (cyclo(CRLILF)) | 11.4 ± 0.4 µM | –
10 | CC[C@H](C)[C@@H]1NC(=O)[C@H](CC(C)C)NC(=O)[C@H](CC(C)C)NC(=O)[C@H](CCCNC(=N)N)NC(=O)[C@H](CS)NC(=O)[C@H](Cc2ccccc2)NC1=O [cyclo-CRLLIF] (cyclo(CRLLIF); ring closure inferred) | – | Hill slope of binding curve to HIF-1α (HIF-1α PAS-B domain; MST): 1.22; Hill slope of binding curve to HIF-2α (HIF-2α PAS-B domain): 1.45
11 | CC[C@H](C)[C@@H]1NC(=O)[C@H](C(C)C)NC(=O)[C@H](CCCNC(=N)N)NC(=O)[C@H](CS)NC(=O)[C@H](Cc2ccccc2)NC(=O)[C@H]([C@@H](C)CC)NC1=O [cyclo-CRVIIF] (cyclo(CRVIIF); ring closure inferred) | – | Kd (HIF-1α PAS-B domain; KD for HIF-1α PAS-B, MST): 65.5 ± 11.4 µM; selectivity for HIF-1α over HIF-2α (HIF-1α PAS-B domain; ratio of MST KD values): 2 fold
12 | CC[C@@H]1NC(=O)[C@H]([C@@H](C)CC)NC(=O)[C@H](CC(C)C)NC(=O)[C@H](CCCNC(=N)N)NC(=O)[C@H](CS)NC(=O)[C@H](Cc2ccccc2)NC1=O [Abu, cyclo-CRLIAbuF] (cyclo([Abu]FCRLI)) | 73.4 ± 4.8 µM | –
13 | CC[C@H](C)[C@@H]1NC(=O)[C@H](CC(C)C)NC(=O)[C@H](CCCNC(=N)N)NC(=O)[C@H](CS)NC(=O)[C@H](Cc2cccc3ccccc23)NC(=O)[C@H]([C@@H](C)CC)NC1=O [1-Nal, cyclo-CRLII(1-Nal)] (cyclo([1Nal]CRLII)) | 1.7 ± 0.5 µM | –
14 | CC[C@H](C)[C@@H]1NC(=O)[C@H](CC(C)C)NC(=O)[C@H](CCCNC(=N)N)NC(=O)[C@H](CCSC)NC(=O)[C@H](Cc2ccccc2)NC(=O)[C@H]([C@@H](C)CC)NC1=O [M, cyclo-MRLIIF] (cyclo(FMRLII)) | > 100 µM | –
15 | CC[C@H](C)[C@@H]1NC(=O)[C@H](CC(C)C)NC(=O)[C@H](CCCNC(=N)N)NC(=O)[C@H](CO)NC(=O)[C@H](Cc2ccccc2)NC(=O)[C@H]([C@@H](C)CC)NC1=O [S, cyclo-SRLIIF] (cyclo(FSRLII)) | > 100 µM | –
